Source: patent US20150141375A1 (priority 2009, published 2015)
Read-outs that look alike come from different tables or passages of the source.

Columns and labels:
HCMV = HCMV viral DNA accumulation in HFF cells, real time PCR, 7 days; assay type: cell-based; details: GCV 10 μM
HCMV (AD169) = experiment: HCMV real time array of viral transcripts; assay type: cell-based; details: CDV 50 μM, GCV 15 μM, CMX001 0.5 μM; ANOVA P<0.05
Adenovirus = details: literature values; cited from earlier work
BK Virus = experiment: BK virus replication in RPTECs, viral DNA by qPCR after 5 days; assay type: cell-based; details: Betapolyomavirus hominis, RPTEC
Description: To test the ability of CMX001 to inhibit replication of BK virus, stocks of BK virus were prepared in HFF cells and dilutions of the virus stocks were used to infect primary human renal tubular epithelial cells (RPTECs). Drug dilutions were then added to the wells containing the infected cells and the plates were incubated for 5 days. Total DNA was prepared from the plates and viral DNA was quantified by qPCR.

HSV-1 = experiment: microbe, parasite or virus in culture; assay type: cell-based
HSV-2 = experiment: In vitro efficacy against HSV-2 strains in HFF (CPE, plaque reduction); assay type: cell-based
Description: In vitro screening by CPE assay in human foreskin fibroblast (HFF) cells with confirmation using plaque reduction assays in HFF.

HSV-2, strain MS = experiment: Mortality of BALB/c mice infected intranasally with HSV-2, strain MS; assay type: in vivo
Description: Animals: BALB/c, female mice, 3-4 weeks of age.
Treatments were administered to mice for 7 consecutive days beginning 72 hr post viral inoculation by oral gavage using a 0.2 ml volume. CMX001 was administered once daily and ACV was given twice daily at approximately 12 hr intervals.
Mortality rates analyzed by Fisher's exact test; Mean day of death (MDD) by Mann-Whitney U rank sum.

human PBMCs = experiment: Intracellular CDV-PP in human PBMCs; assay type: in vitro ADME
Description: CMX001 increases cellular exposure to the active antiviral agent, cidofovir-diphosphate (CDV-PP). […] CDV-PP in PBMCs incubated for 48 hours with CMX001 or cidofovir.

Mad-4 JCV = experiment: JCV (Mad-4) initial infection of SVG cells (in situ DNA hybridization, qPCR); details: for decrease in percentage of cells containing JCV DNA: day 7
[1] = SVG cell viability / cell number (MTS, alamar blue, hematoxylin); assay type: cell-based, human; details: human, SVG cells; Ara-C 20 μg/ml; read-out: decrease of cell viability (MTS)
Description: (§1) Quantification of cell viability using the MTS [3-(4,5-dimethylthiazol-2-yl)-5-(3-carboxymethoxyphenyl)-2-(4-sulfophenyl)-2H-tetrazolium] assay is based on bioactivity of mitochondrial dehydrogenase in living cells, which converts colorless tetrazolium salt to a colored formazan. MTS assays were performed according to manufacturer's instructions (Promega, Madison Wis.). Briefly, culture medium was removed from cells and 50 μL of PBS was added into each well of a 96 well plate. Ten μL of MTS reagent were added to wells of cells, and to a well without cells to determine background. Mixtures were incubated at 37° C. for 2 hours and the absorbance was measured at 490 nm. Trypan blue staining was performed on identical cultures to correlate MTS values with cell viability. The final values indicated are the result from 3 replicates. The value for the non-treated control was set to 100% and all other values are represented as a percentage of the control. Alamar blue (AB) assay.
(§2) Quantification of cell viability using the alamar blue (AB) assay was performed according to the manufacturer's instructions (Invitrogen, Gaithersburg, Md.). Briefly, 10 μL of AB reagent was added to each well of a 96 well dish containing cells or without cells to determine background. Mixtures were incubated at 37° C. for 6 hours and the absorbance measured at 570 nm using 600 nm as a reference wavelength. The value for the non-treated control was set to 100% and all other values are represented as a percentage of the control.
(§3) Because cell density in cultures processed for in situ DNA hybridization could not be measured by MTS or AB assays, cell density was approximated in cell cultures processed by quantifying hematoxylin staining intensity. Coverslips containing cells were prepared for in situ DNA hybridization and co-stained with hematoxylin. Subsequently, each coverslip was scanned and the hematoxylin intensities quantified using ImageJ. To determine the total cell number per coverslip, images were acquired at 10 random positions at 100× magnification. Cells were counted throughout each image and the average cell number per slide was generated by averaging counts from the 10 images for each experimental group. Exactly 900 images at 100× magnification cover the surface of an 18 mm×18 mm coverslip.

SVG cells = experiment: as above; assay type: cell-based, human; details: Ara-C 5 μg/ml
Description: as §1, §2, §3

[2] = Safety and pharmacokinetics of CMX001 in healthy volunteers; assay type: in vivo, human; details: blood, Human, analyte = label
Description: An initial study was conducted to evaluate the safety and pharmacokinetics of CMX001 in healthy volunteers. The study consisted of a single dose arm (SD) and a multiple dose arm (MD). In the single dose arm 7 cohorts of 6 subjects were treated (4 subjects received active drug and 2 placebo). Enrollment was staggered as 2 subjects (one active, one placebo) followed by 4 subjects (Groups A and B). The estimated single doses for the two highest doses treated for a […] subject were 40 mg (0.6 mg/kg cohort 6) and 70 mg (1 mg/kg cohort 7). In the multiple dose arm, cohort 6MD received 0.1 mg/kg on Day 0, 6 and 12; Cohort 7MD received 0.2 mg/kg on Day 0, 6 and 12. Levels of cidofovir, CMX001 and CMX064 (major metabolite) were measured in blood and urine of subjects during the course of the study. Gastrointestinal (GI) monitoring of the subjects included (a) monitoring for clinical signs of GI adverse events, (b) monitoring for clinical symptoms using a visual Analog Scale, (c) monitoring for appetite loss/anorexia, nausea, vomiting, diarrhea, constipation and intestinal gas/bloating, (d) laboratory tests for fecal occult blood; serum electrolytes, urine specific gravity, BUN/creatinine ratio; serum albumin, and lipids, and (e) diagnostic studies (the Wireless capsule endoscopy (PillCam®, Given Imaging)).

[3] = JC polyomavirus, read-out: reduction of JCV DNA containing cells, normalized to cell viability

Nc1nc(O)c2ncn(COC(CO)CO)c2n1 [ganciclovir, reference compound]
fold reduction of accumulation of viral DNA (HCMV): less than 10 fold
levels of viral transcripts (HCMV (AD169)): Significant reductions in levels of most viral transcripts
IC50 (Adenovirus): 4.5 to 33 µM
EC50 (BK Virus; Virus Dilution 1:10): 89 µM
EC50 (BK Virus; Virus Dilution 1:50): > 100 µM
EC50 (BK Virus; Virus Dilution 1:100): 70.8 µM

Nc1nc2c(ncn2COCCO)c(=O)[nH]1 [Acyclovir, acyclovir]
EC50 (HSV-1; Human alphaherpesvirus 1, ACV resistant strain B-2006): > 100 µM
EC50 (HSV-1; Human alphaherpesvirus 1, ACV resistant strain DM2.1): > 100 µM
EC50 (HSV-1; Human alphaherpesvirus 1, ACV resistant strain PAAr5): 13.6 ± 2.7 µM
EC50 (HSV-1; Human alphaherpesvirus 1, F (wild type), Table 9): 1.9 ± 0.47 µM
EC50 (HSV-1; Human alphaherpesvirus 1, SC16, ACV resistant strain SC16-S1): > 100 µM
EC50 (HSV-1; Human alphaherpesvirus 1, read-out: EC50 range, panel of wild-type and ACV-resistant isolates of HSV-1 and HSV-2): ≥ 2 µM
EC50 (HSV-1; Human alphaherpesvirus 1, strain F): 0.35 ± 0.2 µM
EC50 (HSV-1; Human alphaherpesvirus 1, strain HL-3): 3.8 ± 0.4 µM
EC50 (HSV-2; Human alphaherpesvirus 2, ACV resistant strain 11572): > 100 µM
EC50 (HSV-2; Human alphaherpesvirus 2, ACV resistant strain 11680): 79 ± 10 µM
EC50 (HSV-2; Human alphaherpesvirus 2, ACV resistant strain 12247): > 100 µM
EC50 (HSV-2; Human alphaherpesvirus 2, ACV resistant strain AG-3): > 100 µM
EC50 (HSV-2; Human alphaherpesvirus 2, G (wild type), Table 9): 2.1 ± 0.99 µM
EC50 (HSV-2; Human alphaherpesvirus 2, strain G): 3.1 ± 3.5 µM
EC50 (HSV-2; Human alphaherpesvirus 2, strain MS): 2.2 ± 0.8 µM
IC50 (Adenovirus): > 100 µM
MDD (HSV-2, strain MS; Acyclovir 3 mg/kg): 9.0 ± 1.6
Mortality Number (HSV-2, strain MS; Acyclovir 3 mg/kg): 15/15
Mortality Percent (HSV-2, strain MS; Acyclovir 3 mg/kg): 100%
MDD (HSV-2, strain MS; Acyclovir 10 mg/kg): 11.1 ± 2.4
Mortality Number (HSV-2, strain MS; Acyclovir 10 mg/kg): 11/15
Mortality Percent (HSV-2, strain MS; Acyclovir 10 mg/kg): 79%
MDD (HSV-2, strain MS; Acyclovir 30 mg/kg): 10.7 ± 2.0
Mortality Number (HSV-2, strain MS; Acyclovir 30 mg/kg): 6/15
Mortality Percent (HSV-2, strain MS; Acyclovir 30 mg/kg): 40%

cidofovir diphosphate [CDV-PP]
t1/2 for CDV-PP (human PBMCs; PBMCs incubated 48 hours with CMX001 or cidofovir (FIG. 40)): 156 h
t1/2 for CDV-PP (human PBMCs; incubation with CMX001 for 1 hour (FIG. 42)): 156 h
t1/2 for CDV-PP (human PBMCs; incubation with CMX001 for 48 hours (FIG. 41)): 93.6 h

Nc1ccn([C@@H]2O[C@H](CO)C(O)C2O)c(=O)n1 (stereo partly drawn) [Ara-C, Cytosine β-D-arabinofuranoside]
decrease in percentage of cells containing JCV DNA (Mad-4 JCV; Ara-C 5 μg per mL): 25%
decrease in percentage of cells containing JCV DNA (Mad-4 JCV; Ara-C 20 μg per mL): 83%
inhibition at 5 µg/mL (Mad-4 JCV; [3]): 27%
inhibition at 20 µg/mL (Mad-4 JCV; [3]): 78%
cytotoxicity at 20 μg/ml [1]: 21%
cytotoxicity (MTS) (SVG cells): did not cause cytotoxicity

Nc1ccn(C[C@@H](CO)OCP(=O)(O)OCCCOCCCC(=O)O)c(=O)n1 [CMX064]
AUC ([2]; 0.05 mg/kg, CMX001 0.050 mg/kg): 39 ng·h/mL
Cmax ([2]; 0.05 mg/kg, CMX001 0.050 mg/kg): 4.63 ng/mL
AUC ([2]; 0.1 mg/kg, CMX001 0.100 mg/kg): 34 ng·h/mL
Cmax ([2]; 0.1 mg/kg, CMX001 0.100 mg/kg): 2.85 ng/mL
AUC ([2]; 0.2 mg/kg, CMX001 0.200 mg/kg): 39.7 ng·h/mL
Cmax ([2]; 0.2 mg/kg, CMX001 0.200 mg/kg): 4.55 ng/mL
AUC ([2]; 0.4 mg/kg, CMX001 0.400 mg/kg): 203 ng·h/mL
Cmax ([2]; 0.4 mg/kg, CMX001 0.400 mg/kg): 23 ng/mL
AUC ([2]; 0.6 mg/kg, CMX001 0.600 mg/kg): 187 ng·h/mL
Cmax ([2]; 0.6 mg/kg, CMX001 0.600 mg/kg): 24.9 ng/mL
AUC ([2]; CMX001 0.025 mg/kg): 11.8 ng·h/mL
Cmax ([2]; CMX001 0.025 mg/kg): 1.69 ng/mL
